The values that follow come from ChEMBL document CHEMBL5316353, “Antitarget, Anti-SARS-CoV-2 Leads, Drugs, and the Drug Discovery-Genetics Alliance Perspective” (J Med Chem, 2023).

Where only a bound is given, the exact number is not on record here.

Assay [1] relates to SARS-CoV-2. The assay can be described thus: microbe, parasite or virus in culture. The note with it: Severe acute respiratory syndrome coronavirus 2.
Assay [2] concerns SARS-CoV-2. The assay can be described thus: Antiviral activity against SARS-CoV-2 Delta assessed as reduction of viral growth. Type of assay: functional, organism-based. The conditions noted are these: Severe acute respiratory syndrome coronavirus 2, Delta.
The subject of assay [3] is SARS-CoV-2. The assay can be described thus: Antiviral activity against SARS-CoV-2 Gamma assessed as reduction of viral growth. Type of assay: functional, organism-based. The conditions noted are these: Severe acute respiratory syndrome coronavirus 2, Gamma.
Assay [4] concerns SARS-CoV-2. The assay can be described thus: Antiviral activity against SARS-CoV-2 Omicron assessed as reduction of viral growth. The conditions noted are these: Severe acute respiratory syndrome coronavirus 2, Omicron. Type of assay: functional, organism-based.
Assay [5] has as its system SARS-CoV-2. The assay can be described thus: Antiviral activity against SARS-CoV-2 Beta assessed as reduction of viral growth. The conditions noted are these: Severe acute respiratory syndrome coronavirus 2, Beta. The format is functional, organism-based.
The test system of assay [6] is Middle East respiratory syndrome-related coronavirus. The format is functional, organism-based, Vero E6. The conditions noted are these: Vero C1008.
Assay [7] has the same test system. Type of assay: functional, organism-based. The conditions noted are these: Calu-3.
Assay [8] concerns SARS-CoV-2. The format is functional, organism-based. The conditions noted are these: Severe acute respiratory syndrome coronavirus 2.
The test system of assay [9] is SARS-CoV-2. The format is functional, organism-based. The conditions noted are these: Severe acute respiratory syndrome coronavirus 2, HPAEpiC.
In assay [10] the test system is SARS-CoV-2. The format is functional, organism-based. The note with it: Severe acute respiratory syndrome coronavirus 2, Huh-7.
Assay [11] relates to SARS-CoV. The format is functional, organism-based, Vero E6. The note with it: Severe acute respiratory syndrome-related coronavirus, Vero C1008.
For assay [12], the system named is Human coronavirus 229E. The experiment in a line: microbe, parasite or virus in culture. The note with it: MRC5.
Assay [13] concerns the target Replicase polyprotein 1ab (Severe acute respiratory syndrome-related coronavirus, UniProt P0C6X7). The assay can be described thus: Binding affinity to SARS-CoV-1 MPro assessed as inhibition constant.
Assay [14] is described as follows: Inhibition of HCoV-229E MPro. Further details: species or system Human coronavirus 229E.
A short description of assay [15]: Inhibition of MERS-CoV MPro. Further details: species or system Middle East respiratory syndrome-related coronavirus.
In assay [16] the target is Replicase polyprotein 1ab (Severe acute respiratory syndrome coronavirus 2, UniProt P0DTD1). The assay can be described thus: Inhibition of SARS-CoV-2 MPro.

In the case of `CN(C)C(=O)COC(=O)Cc1ccc(OC(=O)c2ccc(NC(=N)N)cc2)cc1` [CAMOSTAT], the concentration for a half-maximal effect (EC50) in assay [1] is 700 nM. As to `COc1ccc(C(=O)Nc2cccc(C(F)(F)F)c2)cc1Nc1nc(-c2cccnc2)c2[nH]ccc2n1`, the EC50 in assay [2] is < 6.9 nM; in [3], < 6.9 nM; in [4], < 6.9 nM; in assay [5] it was 12.4 nM. In the case of `CC[C@H](C)[C@H](NC(=O)[C@H](Cc1ccc(O)cc1)NC(=O)[C@H](CO)NC(=O)[C@H](CCC(=O)O)NC(=O)[C@H](CC(N)=O)NC(=O)[C@H](CC(C)C)NC(=O)[C@H](C)NC(=O)[C@H](CCCCN)NC(=O)[C@@H](NC(=O)[C@@H](NC(=O)[C@H](CCC(N)=O)NC(=O)[C@H](CCC(N)=O)NC(=O)[C@H](CC(C)C)NC(=O)[C@H](CO)NC(=O)[C@H](CCCNC(=N)N)NC(=O)[C@H](CCSC)NC(=O)[C@H](CCC(=O)O)NC(=O)[C@H](Cc1ccc(O)cc1)NC(=O)[C@H](CCC(=O)O)NC(=O)[C@H](CC(C)C)NC(=O)[C@H](CC(=O)O)NC(=O)[C@H](CC(C)C)NC(=O)[C@H](CC(C)C)NC(=O)[C@@H](NC(=O)[C@@H](NC(=O)[C@H](CC(N)=O)NC(=O)[C@@H](NC(=O)[C@H](CCC(N)=O)NC(=O)[C@@H](NC(=O)[C@H](CC(C)C)NC(=O)[C@@H](N)CO)[C@@H](C)O)[C@@H](C)CC)[C@@H](C)O)[C@@H](C)O)C(C)C)C(C)C)C(=O)N[C@@H](CC(=O)O)C(=O)N[C@@H](CC(C)C)C(=O)N[C@@H](CCCCN)C(=O)N[C@@H](CCC(=O)O)C(=O)N[C@@H](CC(C)C)C(=O)O`, the IC50 in [6] and in assay [7] was 550 nM in each case. Compound `NC1(C(=O)N[C@@H](CCO)c2ccc(Cl)cc2)CCN(c2nc[nH]c3nccc2-3)CC1` [CAPIVASERTIB] showed an IC50 in assay [8] of 2330 nM. As to `O=C[C@H](C[C@@H]1CCNC1=O)NC(=O)[C@@H]1[C@H]2CCC[C@H]2CN1C(=O)COc1ccc(Cl)cc1Cl` (single isomer, unassigned), the results for the EC50 in [9] and in assay [10] were 1.1 nM and 31 nM, respectively. Take `C[C@@H](OC(C)(C)C)[C@H](NC(=O)OCc1ccccc1)C(=O)N[C@@H](CC1CCCCC1)C(=O)N[C@H](C=O)C[C@@H]1CCNC1=O`: the figures for the IC50 in assay [11] and in assay [12] were 600 nM and 140 nM, respectively. For `COc1cccc2[nH]c(C(=O)N[C@@H](CC(C)C)C(=O)N[C@@H](C[C@@H]3CCNC3=O)C(=O)CO)cc12` [PF-00835231], in assay [13], the Ki turned out to be 4.94 nM. In assay [14], this compound gave an IC50 of 4 nM. Compound `CC(C)(C)OC(=O)Nc1cccn([C@@H](CC2CC2)C(=O)N[C@@H](C[C@@H]2CCNC2=O)C(=O)C(=O)NCc2ccccc2)c1=O` displayed an IC50 in assay [15] of 580 nM.

Regarding `O=C[C@H](C[C@@H]1CCNC1=O)NC(=O)[C@H](Cc1ccccc1)NC(=O)c1cc2ccccc2[nH]1`, in assay [16], the IC50 worked out at 34 nM.

As a reminder, the EC50 is the concentration that produces a half-maximal response. What is called IC50 is the point on the concentration scale where inhibition reaches its midpoint. A low value points to inhibition by little substance. As usually defined, the Ki is the equilibrium dissociation constant of an inhibitor or competing ligand from its target.
